± gives the expanded uncertainty stated by the source.
Details: Fluid (supercritical or subcritical phases), Brillouin light scattering

CCCCCCC [heptane]
speed of sound (513.4 K, 8000 kPa): 451.65 ± 18 m/s
speed of sound (513.58 K, 6000 kPa): 394.15 ± 14 m/s
speed of sound (513.59 K, 3000 kPa): 293.56 ± 8.7 m/s
speed of sound (513.65 K, 4000 kPa): 333.84 ± 11 m/s
speed of sound (513.92 K, 2500 kPa): 266.66 ± 7.5 m/s
speed of sound (515.23 K, 5000 kPa): 363.89 ± 12 m/s
speed of sound (515.3 K, 10000 kPa): 481.16 ± 20 m/s
speed of sound (521.41 K, 5000 kPa): 337.01 ± 11 m/s
speed of sound (523.19 K, 10000 kPa): 459.31 ± 19 m/s
speed of sound (523.83 K, 3000 kPa): 242.56 ± 6.7 m/s
speed of sound (524.25 K, 4000 kPa): 291.43 ± 8.7 m/s
speed of sound (524.62 K, 6000 kPa): 357.73 ± 12 m/s
speed of sound (524.62 K, 8000 kPa): 417.84 ± 16 m/s
speed of sound (525.23 K, 2500 kPa): 196.31 ± 5.5 m/s
speed of sound (528.41 K, 3000 kPa): 218.56 ± 5.8 m/s
speed of sound (528.9 K, 4000 kPa): 269.01 ± 7.6 m/s
speed of sound (528.93 K, 2500 kPa): 167.01 ± 5 m/s
speed of sound (528.95 K, 8000 kPa): 403.55 ± 15 m/s
speed of sound (529.1 K, 6000 kPa): 344.17 ± 11 m/s
speed of sound (532.76 K, 3000 kPa): 193.81 ± 5.4 m/s
speed of sound (533.4 K, 10000 kPa): 437.12 ± 17 m/s
speed of sound (533.55 K, 4000 kPa): 252.16 ± 6.9 m/s
speed of sound (533.57 K, 8000 kPa): 391.25 ± 14 m/s
speed of sound (533.77 K, 6000 kPa): 331.99 ± 10 m/s
speed of sound (534.12 K, 2500 kPa): 121.38 ± 4.8 m/s
speed of sound (534.45 K, 5000 kPa): 293.97 ± 8.7 m/s
speed of sound (537.58 K, 4000 kPa): 231.06 ± 6.4 m/s
speed of sound (538.13 K, 2500 kPa): 101.28 ± 3.8 m/s
speed of sound (538.36 K, 3000 kPa): 152.7 ± 4.5 m/s
speed of sound (538.84 K, 8000 kPa): 376.34 ± 13 m/s
speed of sound (539.09 K, 6000 kPa): 316.72 ± 9.6 m/s
speed of sound (541.47 K, 4000 kPa): 208.26 ± 5.3 m/s
speed of sound (542.55 K, 8000 kPa): 364.39 ± 12 m/s
speed of sound (543.16 K, 10000 kPa): 413.25 ± 15 m/s
speed of sound (543.5 K, 5000 kPa): 262.34 ± 7.4 m/s
speed of sound (543.6 K, 6000 kPa): 300.59 ± 8.8 m/s
speed of sound (544.09 K, 2500 kPa): 100.71 ± 2.2 m/s
speed of sound (544.95 K, 3000 kPa): 115.6 ± 3.4 m/s
speed of sound (547.02 K, 2500 kPa): 107.6 ± 2.3 m/s
speed of sound (548.66 K, 8000 kPa): 346.4 ± 11 m/s
speed of sound (548.98 K, 6000 kPa): 283.97 ± 8.1 m/s
speed of sound (549.04 K, 3000 kPa): 105.27 ± 2.9 m/s
speed of sound (549.16 K, 4000 kPa): 178.39 ± 4.8 m/s
speed of sound (552.59 K, 2500 kPa): 118.66 ± 2.5 m/s
speed of sound (553.05 K, 6000 kPa): 270.32 ± 7.5 m/s
speed of sound (553.19 K, 8000 kPa): 335.76 ± 11 m/s
speed of sound (553.2 K, 10000 kPa): 388.87 ± 14 m/s
speed of sound (553.42 K, 5000 kPa): 225.17 ± 5.8 m/s
speed of sound (553.43 K, 4000 kPa): 160.12 ± 4 m/s
speed of sound (553.93 K, 3000 kPa): 110.64 ± 2.6 m/s
speed of sound (557.81 K, 8000 kPa): 325.48 ± 10 m/s
speed of sound (557.86 K, 6000 kPa): 255.8 ± 6.9 m/s
speed of sound (559.74 K, 3000 kPa): 116.03 ± 2.4 m/s
speed of sound (559.91 K, 2500 kPa): 129.19 ± 2.8 m/s
speed of sound (560.41 K, 4000 kPa): 132.63 ± 2.9 m/s
speed of sound (563.03 K, 10000 kPa): 363.89 ± 12 m/s
speed of sound (563.09 K, 3000 kPa): 119.84 ± 2.5 m/s
speed of sound (563.58 K, 8000 kPa): 312.82 ± 9.5 m/s
speed of sound (563.84 K, 6000 kPa): 236.54 ± 6.2 m/s
speed of sound (563.94 K, 4000 kPa): 124.51 ± 2.9 m/s
speed of sound (564.02 K, 2500 kPa): 135.46 ± 3 m/s
speed of sound (565.65 K, 5000 kPa): 187.87 ± 4.7 m/s
speed of sound (572.57 K, 2500 kPa): 144.47 ± 3.2 m/s
speed of sound (573.39 K, 10000 kPa): 345.21 ± 11 m/s
speed of sound (574.33 K, 3000 kPa): 134.46 ± 3 m/s
speed of sound (574.41 K, 8000 kPa): 287.41 ± 8.2 m/s
speed of sound (574.85 K, 6000 kPa): 211.93 ± 5.4 m/s
speed of sound (574.87 K, 5000 kPa): 160.49 ± 3.9 m/s
speed of sound (575.28 K, 4000 kPa): 113.58 ± 2.4 m/s
speed of sound (577.04 K, 5000 kPa): 154.18 ± 3.8 m/s
speed of sound (579.18 K, 10000 kPa): 331.94 ± 10 m/s
speed of sound (582.31 K, 5000 kPa): 142.67 ± 3.3 m/s
speed of sound (582.39 K, 3000 kPa): 142.99 ± 3.1 m/s
speed of sound (582.86 K, 10000 kPa): 325.02 ± 10 m/s
speed of sound (583.1 K, 8000 kPa): 270.69 ± 7.5 m/s
speed of sound (583.18 K, 6000 kPa): 191.45 ± 4.8 m/s
speed of sound (584.19 K, 2500 kPa): 156.26 ± 3.5 m/s
speed of sound (584.6 K, 4000 kPa): 122.55 ± 2.5 m/s
speed of sound (587.85 K, 10000 kPa): 315.79 ± 9.6 m/s
speed of sound (588.17 K, 5000 kPa): 139.88 ± 3.2 m/s
speed of sound (590.48 K, 2500 kPa): 161.58 ± 3.6 m/s
speed of sound (591.62 K, 4000 kPa): 127.84 ± 2.6 m/s
speed of sound (591.77 K, 3000 kPa): 152.87 ± 3.5 m/s
speed of sound (592.28 K, 5000 kPa): 136.41 ± 3 m/s
speed of sound (592.57 K, 6000 kPa): 176.14 ± 4.2 m/s
speed of sound (592.71 K, 10000 kPa): 307.49 ± 9.3 m/s
speed of sound (593.19 K, 8000 kPa): 249.19 ± 6.7 m/s
speed of sound (597.48 K, 5000 kPa): 135.43 ± 3.2 m/s
speed of sound (601.6 K, 2500 kPa): 170.4 ± 3.8 m/s
speed of sound (602.3 K, 5000 kPa): 135.26 ± 2.9 m/s
speed of sound (602.84 K, 3000 kPa): 161.38 ± 3.6 m/s
speed of sound (603.51 K, 10000 kPa): 291.2 ± 8.6 m/s
speed of sound (603.68 K, 4000 kPa): 143.88 ± 3.1 m/s
speed of sound (604.1 K, 6000 kPa): 161.83 ± 3.7 m/s
speed of sound (604.67 K, 8000 kPa): 226 ± 5.8 m/s
speed of sound (607.65 K, 5000 kPa): 136.72 ± 3.1 m/s
speed of sound (612.08 K, 4000 kPa): 149.82 ± 3.2 m/s
speed of sound (612.37 K, 3000 kPa): 167.57 ± 3.7 m/s
speed of sound (612.58 K, 2500 kPa): 179.23 ± 4.1 m/s
speed of sound (613.73 K, 6000 kPa): 158.49 ± 3.6 m/s
speed of sound (613.93 K, 8000 kPa): 218.01 ± 5.4 m/s
speed of sound (614.03 K, 10000 kPa): 272.94 ± 7.5 m/s
speed of sound (615.11 K, 5000 kPa): 142.58 ± 3.1 m/s
speed of sound (620.2 K, 8000 kPa): 211.6 ± 5.3 m/s
speed of sound (620.87 K, 2500 kPa): 183.77 ± 4.2 m/s
speed of sound (621.22 K, 4000 kPa): 157.32 ± 3.5 m/s
speed of sound (622.48 K, 6000 kPa): 158.77 ± 3.6 m/s
speed of sound (623.13 K, 10000 kPa): 260.67 ± 7.2 m/s
speed of sound (623.25 K, 5000 kPa): 150.58 ± 3.2 m/s
speed of sound (623.42 K, 3000 kPa): 174.58 ± 4 m/s
speed of sound (631.85 K, 4000 kPa): 163.15 ± 3.6 m/s
speed of sound (632.04 K, 3000 kPa): 179.96 ± 4.1 m/s
speed of sound (632.18 K, 2500 kPa): 189.44 ± 4.3 m/s
speed of sound (632.29 K, 5000 kPa): 156.55 ± 3.4 m/s
speed of sound (632.41 K, 6000 kPa): 159.42 ± 3.5 m/s
speed of sound (632.86 K, 8000 kPa): 201.03 ± 4.8 m/s
speed of sound (640.72 K, 2500 kPa): 192.85 ± 4.6 m/s
speed of sound (641.53 K, 3000 kPa): 186.21 ± 4.2 m/s
speed of sound (641.95 K, 4000 kPa): 173.32 ± 4 m/s
speed of sound (642.59 K, 8000 kPa): 195.65 ± 4.6 m/s
speed of sound (643.04 K, 6000 kPa): 164.74 ± 3.6 m/s
speed of sound (643.51 K, 5000 kPa): 165.41 ± 3.6 m/s
speed of sound (650.07 K, 2500 kPa): 195.77 ± 4.6 m/s
speed of sound (650.9 K, 3000 kPa): 189.41 ± 4.3 m/s

— the NIST ThermoML archive (doi:10.1021/acs.jced.8b00212)
